For 91 compounds, melting point results are on record in a melting point compilation (Tetko et al.; mined from patent text by program, amines drawn as free bases though some values may be those of a salt).

Molecules are shown by their SMILES. A value given as a limit tells only on which side of the number the result lay.

Take `CNC(=NS(C)(=O)=O)SC`: the melting point is 88 to 91 °C. Compound `CNC(=O)c1c(OC(C)C)c2cc(OC)ccc2n1C` gave a melting point of 85 to 86 °C. `COCCCS(=O)(=O)NC(=O)CCc1ccc(OCCOC)cc1Oc1ncc(C(F)(F)F)cc1Cl`: the melting point is 112 to 113 °C.

Consider `CC(C)(C)OC(=O)NC1CCCOCC=CC2CC2(C(=O)NS(=O)(=O)C2CC2)NC(=O)C2CC(OC(=O)c3ccc(-c4ccccc4)cc3)CN2C1=O` (stereo unspecified), for which the melting point lay within 160 to 162 °C. With `COc1cc([N+](=O)[O-])ccc1-c1ccc(-c2ccc([N+](=O)[O-])cc2OC)o1`, the melting point was in the range of 308 to 310 °C.

The compound `OC1CSC(Oc2cnccc2-c2ccc(F)cc2)C(O)C1O` (stereo unspecified) gave a melting point of 219 °C.

Regarding `COC(=O)C1(CCN(C)C)c2ccccc2N(C)c2ccc(Cl)cc21` (stereo unspecified), the melting point came out at 106 °C. The compound `CCOC(=O)c1c(-c2ccccc2)csc1N1C(=O)c2ccccc2C1=O` came in with a melting point of 163 to 164 °C.

With `Clc1ccc2[nH]cc(C3=CCN(CCOc4ccccc4)CC3)c2c1`, the melting point amounted to 172 °C. `CC(C)c1csc(/C=C/c2cc(N)ccc2Cl)n1` yielded a melting point of 82 to 85 °C. In turn, `CC(C)(C)C(=O)Nc1nc(O)c2cc(C#C[Si](C)(C)C)cnc2n1` returned a melting point above 250 °C. Consider `CN(C)S(=O)(=O)n1c(C#N)nc2ccccc21`, for which the melting point came out at 93 °C.

In turn, `NCCc1c[nH]c2ccc(OCCCCc3ccccc3)cc12` displayed a melting point of 130 to 132 °C.

In the case of `Nc1n[nH]c2ccc(OCc3ccccc3)cc12`, the melting point is 193 to 195 °C. Compound `O=C(O)CCSSc1ccccc1` displayed a melting point of 58 °C.

Compound `O=C1CC(c2cccc(-n3ccnn3)c2)=Nc2cc(O)c(-c3ccccc3F)cc2N1` showed a melting point above 250 °C. Take `O=C(O)c1ccc2oc3c(c(=O)c2c1)CCC3=Cc1ccccn1`: the melting point was 325 to 328 °C. As to `O=C(O)CCc1ccccc1OCCCCCOc1ccc2c(c1CCCc1ccccc1)OCCC2=O`, the melting point was 98 to 99 °C. On to `CCCCCCc1cnc(-c2ccc(OC[C@H]3CC[C@H](CCCC)CC3)cc2)nc1`, for which the melting point came to 99 °C. The compound `O=C(C1CC1)N1CC[C@H](c2ccccc2)[C@H](O)C1` (relative stereo) yielded a melting point of 128 to 129 °C.

On to `O=C1NCCCN1C1CCN(CC(O)COc2ccccc2Cl)CC1` (stereo unspecified), for which the melting point is 150 to 153 °C. Turning to `CC(F)(F)CCc1ccccc1S(N)(=O)=O`, the melting point fell in the range of 70 to 72 °C.

Turning to `CC(=O)OC1CSC(Oc2cccnc2CN(C)C)C(OC(C)=O)C1OC(C)=O` (stereo unspecified), the melting point was 105 °C. The value for `C=CCC(O)CCCCCCCCCCCCCCCCC` (stereo unspecified) was 48 to 50.5 °C; that for `O=C1NCCCc2ccc([N+](=O)[O-])cc21` was 177 to 180 °C. Consider `O=C(CCCc1c[nH]c2ccccc12)NCc1ccccc1`, for which the melting point is 132 to 133 °C.

`COc1ccc2c(c1)CCC1CCNC(=O)C(CCN3CCCCC3)=C21` (stereo unspecified) had a melting point of 125 to 128 °C. Take `COc1ccc(C(C)(C)C)cc1NC(=O)Nc1ccc(-c2cnc3c(c2)NC(=O)CS3(=O)=O)c2ccccc12`: the melting point was 209 to 211 °C. The compound `Cc1cn(C(C(=O)N(C)C)C(C)C)nc1-c1ccccc1` (stereo unspecified) yielded a melting point of 66.5 to 68.5 °C. For the compound `O=C1NC(=Cc2cccc(Cl)c2Cl)C(=O)C1=NO`, the melting point was found to be 180 °C. Turning to `O=C(Nc1cccc2c1CC(O)CC2)c1ccc(-c2ccc(F)c(F)c2)cc1` (stereo unspecified), the melting point was 210 to 213 °C. Regarding `Cc1ccnc(C(c2cc(F)ccc2F)S(=O)(=O)c2ccc(Cl)cc2)c1` (stereo unspecified), the melting point is 116 to 117 °C. Compound `CN1CCc2nc3ccc(Cl)cc3c(Oc3ccccc3)c2C1` showed a melting point of 182 to 184 °C. `CCOC(=O)c1nn(-c2ccc(OC(F)F)cc2)c2cccc(Cl)c2c1=O` returned a melting point of 134 °C.

Turning to `COCCOc1ccc2cc3ccccc3cc2c1`, the melting point lay in the range of 131 to 134 °C. To `COc1cc2c(c3c1OC(C)(C)C3)C(c1ccccc1)=NC(C)(C)C2` belongs 128 to 129 °C; to `CC(=O)c1cccc(Oc2ncccc2OCCCc2ccncc2O)c1`, 101 to 102 °C; to `COc1ccc(-c2ccc3c(Cl)c(OC)ccc3c2)cc1`, 158 to 164 °C.

Compound `Cc1ccc(S(=O)(=O)ON=C(C#N)c2ccccc2)cc1` yielded a melting point of 131 to 132 °C. To `COc1cc(COc2nn(-c3ccccc3)cc2C#N)ccc1OCc1nc(-c2ccco2)oc1C` belongs 167 to 168 °C; to `COCc1cccc(C(O)c2nc(OC)cc(OC)n2)c1N` (stereo unspecified), 40 to 42 °C. In the case of `Cc1cc(=O)[nH]c2cc(OCCCN3CCN(C(c4ccccc4)c4ccccc4)CC3)ccc12`, the melting point fell in the range of 208 to 210 °C. On to `ClCc1ccc(-c2nnc3n2-c2cccnc2Nc2ccccc2-3)cc1`, for which the melting point lay within 260 to 262 °C. As for `O=C(O)c1ccc2c(c1)C(C(Cl)Cl)OC(C(Cl)(Cl)Cl)O2` (stereo unspecified), the melting point amounted to 209 °C. With `C=C(C(=O)O)c1ccc(-c2ccccc2)c(F)c1`, the melting point is 169 to 172 °C.

In turn, `COc1cccc2sc(NC(=O)COC(C)=O)nc12` returned a melting point of 161 to 162 °C. As to `Cc1cc(-c2nc3c(C)cc(Cl)nn3c2-c2ccnc(NC(=O)c3ccc(F)cc3)c2)ccc1F`, the melting point fell in the range of 235 to 236 °C.

With `CCOCc1nc2c(N)nc3cc(OCCN)ccc3c2n1CC(C)(C)O`, the melting point was in the range of 163 to 165 °C. To `CC(=O)SCCC(=O)N1c2cc(C)ccc2CCC1C(=O)O` (stereo unspecified) belongs 119 to 122 °C; to `Cc1cccc(C2C(C#N)=C(C3CC3)Nc3n[nH]cc32)c1[N+](=O)[O-]` (stereo unspecified), 265 °C; to `N[C@H]1CC[C@H](CN2CCC(=C3c4ccccc4Sc4ccc(Cl)cc43)CC2)CC1`, 128 to 135 °C. The value for `COc1ccc2c(c1)CCC(CN1CCC3(CC1)C(=O)NCN3c1ccccc1)C2=O` (stereo unspecified) was 177 to 179 °C; that for `C=CCNc1nc(N)nc2c1ncn2C1C=CC(CO)C1` (stereo unspecified) was 181 to 183 °C. For `COCCCn1c(CO)c(Br)c2c3c(c(-c4ccccc4Cl)cc21)C(=O)NC3=O`, the melting point fell in the range of 178 to 180 °C. `CC(=O)N(C(C)=O)c1cc2c(Nc3ccc(Sc4nccn4C)c(Cl)c3)c(C#N)cnc2cc1N1CCC(N2CCCC2)CC1` had a melting point of 245 to 247 °C. In the case of `CCOc1cc(NCCSCc2[nH]cnc2C)nc2ccccc12`, the melting point lay within 152 to 154 °C.

`COc1cn(-c2cccc(C(F)(F)F)c2)nc(C(=O)N(C)OC)c1=O` had a melting point of 170 to 171 °C.

The compound `O=CNCc1ccc2[nH]cc(CCN3C(=O)c4ccccc4C3=O)c2c1` came in with a melting point of 45 °C.

The compound `CCOC(=O)C(=CNc1ncnc2cc(C)c(C)cc12)C(=O)OCC` registered a melting point of 146 to 148 °C. The value for `CCCCP(=CC#N)(CCCC)CCCC` was 131 to 132 °C; that for `Cc1noc(C(=O)NC(C)C)c1C(=O)O` was 86 to 92 °C. The value for `COc1cnc(CSc2nc3cc4c(cc3[nH]2)OCO4)cc1OC` was 198 to 200 °C; that for `CCc1nc(Cc2ccc([N+](=O)[O-])cc2)no1` was 69 to 70 °C; that for `CCOP(=O)(CCCCc1ccc2ccccc2c1O)OCC` was 90 to 91 °C.

The compound `O=C(Cc1cccnc1)c1ccc2c(c1)CCC2` registered a melting point of 55 to 56 °C. In the case of `Cc1oc(-c2ccccc2)nc1CCOc1ccc(CCCCC2OC(=O)NC2=O)cc1` (stereo unspecified), the melting point lay within 136 to 137 °C. `Cc1cccc(NC(c2cccc(O)c2)c2ccc3cccnc3c2O)n1` (stereo unspecified) registered a melting point of 187 to 189 °C. As to `CC(=O)Oc1ccc(C(C)(c2ccc(OC(C)=O)cc2)c2ccc(OC(C)=O)cc2)cc1`, the melting point was 169 °C.

In turn, `CCCCc1cc(O)cc(=O)o1` had a melting point of 110 to 111 °C. Regarding `CCCCCCCCCCCCC1(Cn2ccnc2)SCC(CCCC)S1` (stereo unspecified), the melting point lay within 156 to 161 °C. Consider `CCOC(=O)COc1cccc(-c2nc3ncccc3[nH]2)c1`, for which the melting point came out at 158 °C. The value for `O=CNc1ccc(C2=NNC(=O)C3CC23)cc1` (stereo unspecified) was 239 to 240 °C; that for `COc1ccc(-c2cc(=Nc3c(C)cc(C)cc3C)n(C)c(=NCc3ccccc3)n2C)cc1OC` was 97 to 100 °C. The compound `O=C1C(=O)c2ccccc2C2=C1SCC1(CCN(C(=O)c3ccccc3I)CC1)O2` registered a melting point of 165 to 166 °C.

Consider `CCOC(=O)/C=C/c1ccc2oc(Cc3nc(-c4ccccc4)oc3C)cc2c1`, for which the melting point fell in the range of 150 to 151 °C.

Turning to `CS(=O)(=O)c1ccc(Cc2ccc(CCNS(=O)(=O)c3ccc(Cl)cc3)c(CCC(=O)O)c2)cc1`, the melting point fell in the range of 105 to 107 °C.

In turn, `Cc1[nH]cc2c(=O)n(-c3ccc(Cl)cc3)nc-2c1-c1cccc(I)c1` displayed a melting point of 306 to 312 °C. As for `COC1(c2cccc(Sc3cc(C)c4c(ccc(=O)n4C)c3)c2)CCOCC1`, the melting point was in the range of 101 to 102 °C. On to `COc1ccc2[nH]c(=O)n3c(=O)[nH]nc3c2c1`, for which the melting point is above 350 °C. With `O=C(O)CON=c1c2nccc3c(Cl)ccc(c32)n2cccc12`, the melting point stood at 202 °C. In turn, `COC(=O)c1cc(C(=O)OC)cc(S(=O)(=O)Nc2ccc(F)cc2C(F)(F)F)c1` came in with a melting point of 142 to 150 °C.

On to `c1ccc(CN2CCN(c3nc4cccc5c4n3CCC5)CC2)cc1`, for which the melting point is 157 to 158 °C. In the case of `O=C(O)C=Cc1ccc(CCc2ccncc2)cc1`, the melting point is above 300 °C. `O=C1COc2cc(F)c(NC(=O)c3ccccc3[N+](=O)[O-])cc2N1` registered a melting point above 248 °C. The compound `Cc1cc(C2=NN(C)C(=O)C2)c(Cl)cc1Cl` displayed a melting point of 196 to 198 °C. `CSc1nnc(C(F)(F)F)n1C` displayed a melting point of 46 °C. Regarding `Cc1c(O)c(=O)ccn1CCO`, the melting point fell in the range of 164 to 165 °C. For `CCCCCCCCCNC(C)C(=O)O` (stereo unspecified), the melting point was 264 °C. To `Cc1oc(-c2ccccc2)nc1COc1cc(F)cc(CN(O)C(N)=O)c1` belongs 157 to 158 °C; to `CC(C)(Cc1ccc(O)cc1)NCC(O)c1cc(OCc2ccccc2)cc2c1OCC(=O)N2` (stereo unspecified), 255 to 258 °C. `CC(CCCl)C(=O)Nc1cc(C(C)(C)C)no1` (stereo unspecified) had a melting point of 135 to 137 °C.

By melting point is commonly meant the temperature of the solid-liquid transition.
